Reference: publication PMC11638965, “Leveraging Dual-Ligase Recruitment to Enhance Protein Degradation via a Heterotrivalent Proteolysis Targeting Chimera” (Journal of the American Chemical Society, 2024)
Where two headings read alike, the source gives them in different places.

Assays:
VHL = molecular target: T1, VHL (Homo sapiens, UniProt P40337); assay: NanoBRET lytic and live cell target engagement assay; type: binding
T1 construct: host or cells: HEK293, transient
Method: CRBN (N2910, Promega) and VHL (N2930, Promega) NanoBRET target engagement assays were performed according to manufacturer’s instructions. Transfection complexes were prepared using 1 mL Opti-MEM, 30 μL FuGENE HD, and either 9 μg/mL DDB1 Expression Vector and 1 μg/mL NanoLuc-CRBN fusion vector, or 9 μg/mL Transfection Carrier DNA and 1 μg/mL VHL-NanoLuc fusion vector. Transfection complexes were allowed to form for 20 min at room temperature, then were added to 20 mL of HEK293 cells at density of 200,000 cells/mL. Transfected HEK293 cells were plated in a T75 flask and allowed to express protein overnight. The next day, 85 μL of transfected cells (at 200,000 cells/mL) were replated in white nonbinding 96-well plates for live and lytic target engagement measurements. For live mode, a 100x solution of NanoBRET tracer was prepared using 100% DMSO (50 μM for CRBN live-cell, 100 μM for VHL live-cell). 100x tracer was used to prepare 20× tracer using tracer dilution buffer. PROTACs or test compounds were prepared at 10x final concentrations in Opti-MEM. Five μL of the prepared tracer was then dispensed to each well and the plate was mixed on an orbital shaker at 300 rpm for 15 s. Ten μL of each 10x PROTAC dilution was added to the cells and the plate was mixed again before being incubated at a 37 °C, 5% CO2 incubator for 2 or 5 h (as indicated in each figure). After incubation, a 50 μL of a 3X substrate solution (containing 30 μL NanoBRET Nano-Glo Substrate, 10 μL Extracellular NanoLuc inhibitor, and 4960 μL of Opti-MEM) was added to each well. Plates were incubated for 2–3 min at room temperature, then donor emission (450 nm) and acceptor emission (at 610 nm) values were read using a GloMax Discover. For lytic mode, the following changes were made. 100x tracer concentration for CRBN was 13 μM, 100X tracer concentration for VHL was 25 μM, 75 μL of a 200,000 cell/mL solution was plated in white nonbinding 96-well plates, and 10 μL of a 10x digitonin solution was added immediately after the cells were treated with PROTACs. Plates were incubated in darkness for 5 min after digitonin addition to allow for permeabilization. 50 μL of 3X substrate (30 μL NanoBRET Nano-Glo substrate and 4970 μL Opti-MEM) was added to each well and plates were incubated for 1 min at room temperature before being read on a GloMax Discover as above.

HEK293 cells = assay: TMT mass spectrometry proteomics; type: cell-based, Human; settings: 250 nM, 4 h; for proteins significantly depleted/downregulated, proteome-wide: 7276 proteins detected, relative to DMSO
Method: S-Trap micro spin column digestion was performed according to the manufacturer’s protocol. Briefly, HEK293 cells were treated with DMSO, 250 nM neg-cis-AB3067 (95) or 250 nM AB3067 (27) for 4 h; cells were harvested and washed with PBS and spun. Cell pellets were solubilized in 5% SDS, 50 mM triethylammonium bicarbonate, reduced with 100 mM DTT solution and alkylated with iodoacetamide to a final concentration of 40 mM. Aqueous phosphoric acid was added to a final concentration of 1.2%. Protein particulate was formed by adding S-Trap binding buffer [90% aqueous methanol, 100 mM TEAB (pH 7.1)]. The mixture was placed on S-Trap micro 1.7 mL columns and centrifuged at 4000 × g for 10 s. Columns were washed with 150 μL of S-Trap binding buffer five times and centrifuged at 4000 × g for 10 s. Samples were digested with 2 μg of trypsin (Promega) at 37 °C for four h. Peptides were eluted with 40 μL of 50 mM TEAB followed by 40 μL of 0.2% aqueous formic acid, and peptides were finally vacuum-dried. TMT15plex labeling of DMSO, 250 nM neg-cis-AB3067 (95) or 250 nM AB3067 (27) conditions were performed, with five biological replicates for each condition and peptide cleanup was performed according to the manufacturer’s protocol. After checking the labeling efficiency, samples were combined, desalted, and dried under vacuum. TMT samples were fractionated using offline high-pH reverse-phase chromatography. Peptides were separated, concatenated to 22 fractions, dried, and peptides redissolved in 5% formic acid and analyzed by LC–MS.
The raw mass spectrometric data were loaded into MaxQuant. Enzyme specificity was set to that of trypsin/P, allowing for cleavage of N-terminal to proline residues and between aspartic acid and proline residues. Other parameters used were as follows: (i) variable modifications—methionine oxidation, protein N-acetylation; (ii) fixed modifications, cysteine carbamidomethylation; (iii) database: Uniprot; -Human (iv) labels: 15-plex TMT (v) MS/MS tolerance: FTMS- 20 ppm, (vi) minimum peptide length, 7; (vii) maximum missed cleavages, 2; and (viii) and (ix) PSM and Protein false discovery rate, 1%. Reporter ion intensities (corrected) results from MaxQuant were imported into excel for bioinformatic analysis. The normalized corrected reporter ion intensities for each label were used to calculate ratios, and all “Contaminant,″ “Reverse”, and “Only identified by site” proteins were removed from the data. Proteins above or below twofold change [log2(2) = 1], and a nominal p-value less than 0.03 [−log10(0.03) = 1.5] were considered as differentially expressed proteins. The final volcano plot was produced in GraphPad prism 10 version [10.2.2].

[1] = HEK293 cells with NanoLuc-VHL, VHL fluorescent tracer, live cells 2 h, read-out: IC50 (Live Cell), Target: VHL
[2] = HEK293 cells with NanoLuc-VHL, VHL fluorescent tracer, lysed with digitonin, read-out: IC50 (Lytic Cell), Target: VHL
[3] = displacement of VHL tracer, live cell format, read-out: IC50 VHL, live cell format

T1 sequence (P40337 whole entry): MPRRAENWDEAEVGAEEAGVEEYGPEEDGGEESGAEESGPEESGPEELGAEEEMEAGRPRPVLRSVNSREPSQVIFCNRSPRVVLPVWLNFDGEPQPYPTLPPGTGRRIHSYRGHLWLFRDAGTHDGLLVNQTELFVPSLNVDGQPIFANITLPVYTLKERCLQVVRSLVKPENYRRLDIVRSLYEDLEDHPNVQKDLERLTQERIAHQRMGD

Row | IC50 (VHL; [1]) [nM] | IC50 (VHL; [2]) [nM] | IC50 (VHL; [3]) [nM] | IC50 (VHL; displacement of VHL tracer, lytic format, read-out: IC50 VHL, lytic format) [nM] | fold weaker at engaging VHL in live cell format than in lytic format (VHL; live vs lytic) [fold] | fold stronger binding to VHL with respect to 26, live cell format (VHL; 27 vs 26) [fold] | SMILES | CRBN abundance (HEK293 cells) | EID2 abundance (HEK293 cells) | proteins significantly depleted/downregulated, proteome-wide (HEK293 cells)
1 | > 10000 | 1820 | 2300 | 1820 | > 5.5 |  | Cc1ncsc1-c1ccc(CNC(=O)[C@@H]2C[C@@H](O)CN2C(=O)[C@@H](NC(=O)COCC(C)(COCCOCCOCCNc2cc3c(cc2F)C(=O)N(C2CCC(=O)NC2=O)C3=O)COCCOCCOCCOC(=O)C[C@@H]2N=C(c3ccc(Cl)cc3)c3c(sc(C)c3C)-n3c(C)nnc32)C(C)(C)C)cc1 (mixture of isomers) [AB3063 (26), (17S)-11-((2-(2-(2-((2-(2,6-dioxopiperidin-3-yl)-6-fluoro-1,3-dioxoisoindolin-5-yl)amino)ethoxy)ethoxy)ethoxy)methyl)-17-((2S,4R)-4-hydroxy-2-((4-(4-methylthiazol-5-yl)benzyl)carbamoyl)pyrrolidine-1-carbonyl)-11,18,18-trimethyl-15-oxo-3,6,9,13-tetraoxa-16-azanonadecyl 2-((S)-4-(4-chlorophenyl)-2,3,9-trimethyl-6H-thieno[3,2-f][1,2,4]triazolo[4,3-a][1,4]diazepin-6-yl)acetate] |  |  | 
2 | 2280 | 559 | > 10000 |  |  | > 4.4 | Cc1ncsc1-c1ccc([C@H](C)NC(=O)[C@@H]2C[C@@H](O)CN2C(=O)[C@@H](NC(=O)COCC(C)(COCCOCCOCCNc2cc3c(cc2F)C(=O)N(C2CCC(=O)NC2=O)C3=O)COCCOCCOCCOC(=O)C[C@@H]2N=C(c3ccc(Cl)cc3)c3c(sc(C)c3C)-n3c(C)nnc32)C(C)(C)C)cc1 (mixture of isomers) [AB3067 (27), (17S)-11-((2-(2-(2-((2-(2,6-dioxopiperidin-3-yl)-6-fluoro-1,3-dioxoisoindolin-5-yl)amino)ethoxy)ethoxy)ethoxy)methyl)-17-((2S,4R)-4-hydroxy-2-(((S)-1-(4-(4-methylthiazol-5-yl)phenyl)ethyl)carbamoyl)pyrrolidine-1-carbonyl)-11,18,18-trimethyl-15-oxo-3,6,9,13-tetraoxa-16-azanonadecyl 2-((S)-4-(4-chlorophenyl)-2,3,9-trimethyl-6H-thieno[3,2-f][1,2,4]triazolo[4,3-a][1,4]diazepin-6-yl)acetate] | not significantly depleted | significantly downregulated | all three BET proteins, BRD2, BRD3 and BRD4, were significantly depleted
3 |  |  |  |  |  |  | Cc1ncsc1-c1ccc([C@H](C)NC(=O)[C@@H]2C[C@H](O)CN2C(=O)[C@@H](NC(=O)COCC(C)(COCCOCCOCCNc2cc3c(cc2F)C(=O)N(C2CCC(=O)N(C)C2=O)C3=O)COCCOCCOCCOC(=O)C[C@@H]2N=C(c3ccc(Cl)cc3)c3c(sc(C)c3C)-n3c(C)nnc32)C(C)(C)C)cc1 (mixture of isomers) [neg-cis-AB3067 (95), (17S)-11-((2-(2-(2-((6-fluoro-2-(1-methyl-2,6-dioxopiperidin-3-yl)-1,3-dioxoisoindolin-5-yl)amino)ethoxy)ethoxy)ethoxy)methyl)-17-((2S,4S)-4-hydroxy-2-(((S)-1-(4-(4-methylthiazol-5-yl)phenyl)ethyl)carbamoyl)pyrrolidine-1-carbonyl)-11,18,18-trimethyl-15-oxo-3,6,9,13-tetraoxa-16-azanonadecyl 2-((S)-4-(4-chlorophenyl)-2,3,9-trimethyl-6H-thieno[3,2-f][1,2,4]triazolo[4,3-a][1,4]diazepin-6-yl)acetate] |  |  | no protein was significantly downregulated
